In patent US20160067272A1, “METHODS FOR TREATING IMMUNE DISEASES” (priority 2013, published 2016):
Blank lines part the entries; values can stand above or below the compound they belong to.

Legend:
Tph-1 = biological target: T1, Tph-1 (Mus musculus, UniProt P17532); assay: EAE mouse model with Tph-1 inhibition (NAD+ plus p-Chlorophenylalanine); assay type: in vivo
T1 construct: from tissue; host or cells: whole animal: C57BL/6 mice (Charles River Laboratories)
T1 sequence (P17532 1-447): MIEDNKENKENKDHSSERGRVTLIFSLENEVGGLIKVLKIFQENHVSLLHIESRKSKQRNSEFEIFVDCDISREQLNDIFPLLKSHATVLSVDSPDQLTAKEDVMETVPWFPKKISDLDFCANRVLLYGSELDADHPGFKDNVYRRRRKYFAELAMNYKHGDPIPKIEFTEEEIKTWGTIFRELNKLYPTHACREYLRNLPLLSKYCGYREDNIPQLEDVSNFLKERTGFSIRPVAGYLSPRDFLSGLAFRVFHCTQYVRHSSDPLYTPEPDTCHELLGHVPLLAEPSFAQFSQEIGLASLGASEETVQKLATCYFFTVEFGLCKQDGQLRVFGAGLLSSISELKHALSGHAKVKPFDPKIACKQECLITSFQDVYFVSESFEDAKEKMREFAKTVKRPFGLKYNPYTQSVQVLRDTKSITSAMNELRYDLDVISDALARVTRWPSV
Description: Tph-1 has been very recently shown to prevent from allograft rejection and EAE^45. Thus, it was tested, in vivo, whether NAD^+ protects from EAE and regulates CD4^+ T cell differentiation through Tph1. Mice were subjected to EAE and were treated daily with a placebo solution (PBS) or NAD^+ in addition to p-Chlorophenylalanine, a specific inhibitor of Tph-1.
Onsets of clinical signs of EAE in mice injected with MOG peptide and a placebo solution appeared after 11 days (FIG. 6A). […] However, when NAD^+ treated mice received simultaneously a treatment with a Tph-1 inhibitor, onset of clinical signs of EAE appeared after 11 days.
EAE was induced in 10-week-old C57BL/6 mice using Hooke Labs EAE induction kit (EK-2110) according to manufacturer's instructions. […] For NAD^+ treatment mice received a daily intraperitoneal injection (60 mg in 100 μl in PBS) or a placebo solution (100 μl of PBS) at the same day than MOG immunization. Mice were sacrificed at day 18 and single cell suspension was obtained from spleens for flow cytometry analysis. To test whether NAD^+ was able to reverse the development of EAE, another group of mice was treated daily (for a period of 10 days) with NAD^+ (60 mg/mouse) or a placebo solution 15 days after MOG immunization when mice were scored 3 with a bilateral hindlimb paresis. EAE disease progression was monitored. For Tph-1 or CA3 inhibition, mice received daily intraperitoneal injections (simultaneous to NAD^−) of p-Chlorophenylalanine (1 ml of a 10 mM solution stock, catalog number 0938, Tocris Bioscience) or N-[[[(1S)-1-Carboxy-3-methylbutyl]amino]carbonyl]-L-glutamic acid (100 μl of a 100 mM solution stock, ZJ 43 catalog number 2675,Tocris Bioscience), respectively.

CD4+CD25+ nTregs = assay: IL-17A secretion by nTregs cultured with NAD+ and purinergic receptor antagonists; conditions: for reduction of IL-17A cytokine production induced by NAD+: both selective antagonists (5-BDBD and A804598) added; for production of IL-17A cytokine induced by NAD+: nTregs cultured with NAD+ and the selective antagonist (5-BDBD: P2RX4; A804598: P2RX7; MRS 2279: P2RY1), ELISA
[1] = NAD+ plus Tph-1 inhibition, flow cytometry
[2] = NAD+ treatment followed by Tph-1 inhibition, spleen, flow cytometry

SMILES: N[C@@H](Cc1ccc(Cl)cc1)C(=O)O (racemic) [p-Chlorophenylalanine]
clinical observation (Tph-1; EAE mice treated with NAD+ and Tph-1 inhibitor): hindlimb paralysis and became rapidly lethargic
clinical signs of EAE vs MOG + placebo group (Tph-1; NAD+ and p-Chlorophenylalanine, 13 days after MOG immunization): more severe clinical signs of EAE
CD4+CD25+Foxp3+ cell frequencies (Tph-1; [1]): dramatic decrease
IL-17A+IL-23R+ cells (Tph-1; [1]): significant increase
onset of clinical signs of EAE (Tph-1; NAD+ treated mice receiving Tph-1 inhibitor simultaneously, after MOG immunization): 11 days
IL-10/IFNγ producing cells (Tph-1; [2]): reduced systemically
IL-17A producing cells (Tph-1; [2]): reduced systemically

SMILES: O=C1CN=C(c2cccc(Br)c2)c2oc3ccccc3c2N1 [5-BDBD]
reduction of IL-17A cytokine production induced by NAD+ (CD4+CD25+ nTregs): complete
production of IL-17A cytokine induced by NAD+ (CD4+CD25+ nTregs): dramatic reduced production

reduction of IL-17A cytokine production induced by NAD+ (CD4+CD25+ nTregs): complete
production of IL-17A cytokine induced by NAD+ (CD4+CD25+ nTregs): dramatic reduced production
SMILES: C[C@H](NC(=NC#N)Nc1cccc2ncccc12)c1ccccc1 [A804598, 2-cyano-1-[(1S)-1-phenylethyl]-3-quinolin-5-ylguanidine]

production of IL-17A cytokine induced by NAD+ (CD4+CD25+ nTregs): did not change
SMILES: CNc1nc(Cl)nc2c1ncn2[C@H]1C[C@H](OP(=O)(O)O)[C@]2(COP(=O)(O)O)C[C@H]12 [MRS 2279, 2-Chloro N(6)-methyl-(N)-methanocarba-2′-deoxyadenosine-3′,5′-bisphosphate]
